Literature values as cited in patent US5932596A, “Imidazoylalkyl substituted with a six membered nitrogen containing nitrogen containing heterocyclic ring” (Schering Corporation, priority 1995, dated 1999).

System: H3 receptors
Conditions: rat brain; Arrang et al.

NCCc1c[nH]cn1 [histamine]
maximal inhibition of release: approximately 60%
